Read-outs that look alike come from different tables or passages of the source.
Tests used:
Type in all cases: in vivo
[1] = tested on: Apis mellifera; experiment: Tunnel test / spray application / bees: brood development (share of comb cells); conditions: 50 g a.s./ha
Text: (§1) Der Test wurde gemäß EPPO (European Plant Protection Organisation) Leitlinie 170 wie folgt durchgeführt:
Über alle Waben eines Bienenstocks wird der jeweilige Anteil an Zellen bestimmt, der durch Pollen, Nektar, Eier, Larven oder Puppen belegt ist bzw. leer ist. […]

[2] = tested on: Apis mellifera; experiment: Tent test / drench application / bees: foraging activity; conditions: for Aktivität der Nahrungssuche, Zahl der Bienen / min / 4 m^2: 10 mg a.s./pl.
Text: Der Test wurde wie folgt durchgeführt:

[3] = tested on: Apis mellifera; experiment: Tunnel test / spray application / bees: foraging activity; conditions: for Aktivität der Nahrungssuche, Zahl der Bienen / min / m^2: 50 g a.s./ha
Text: as §1
Während einer Minute werden in einem abgegrenzten Bereich von 2 x 1 m^2 die Bienen gezählt, die auf Blüten absitzen. Tabelle 3 (siehe auch Figur 3)

[4] = tested on: Apis mellifera; conditions: for Zahl toter Arbeiterbienen: 10 mg a.s./pl.
Text: (§2) Die Mortalität von Arbeiterbienen vor dem Bienenstock wird mittels einer Falle für tote Bienen (dead bee trap) bestimmt. Die Falle besteht aus Maschendraht und ist vor dem Bienenstock angebracht. Einzelne, lebende Bienen können die Maschen des Drahts passieren, der Transport toter Bienen durch die Maschen ist nicht möglich, weswegen tote Bienen sich in der Falle ansammeln. Tabelle 1 (siehe auch Figur 1)

[5] = tested on: Apis mellifera; experiment: Tunnel test / spray application / bees: acute mortality of pupae in front of the hive; conditions: 50 g a.s./ha
Text: as §1
Tabelle 2 (siehe auch Figur 2)

[6] = tested on: Apis mellifera; conditions: for Zahl toter Arbeiterbienen: 50 g a.s./ha
Text: as §1, §2

[7] = tested on: Apis mellifera; experiment: Greenhouse test / residue test / bees: mortality after contact with treated tomato leaves; conditions: 50 g a.s./ha
Text: Der Versuch wurde wie folgt durchgeführt:
Die Tomatenpflanzen wurden im Gewächshaus mit den Testverbindungen bzw. der Referenzsubstanz behandelt (Spritzappliaktion, 3 fache Wiederholung). 1, 3, 6 und 13 Tage nach Behandlung (DAA) wurden Blätter entnommen (je 5 Blattproben pro Behandlung) und in Boxen gegeben. In jede Box wurden 10 Bienen transferiert und die Boxen wurden unter kontrollierten Bedingungen aufbewahrt, wobei die Bienen mit Zuckerlösung gefüttert wurden. 24, 48 und 72 nach Transfer der Bienen wurde deren Mortalität bestimmt. Tabelle 9 (siehe auch Figur 9)

[8] = result in words, 27 Tage nach Applikation

CN1COCN(Cc2cnc(Cl)s2)/C1=N\[N+](=O)[O-] [Thiamethoxam, reference compound]
Anteil an Zellen: Eier ([1]; 1 Tag vor Applikation): 17,5% | Anteil an Zellen: Larven ([1]; 1 Tag vor Applikation): 9% | Anteil an Zellen: Leer ([1]; 1 Tag vor Applikation): 30% | Anteil an Zellen: Nektar ([1]; 1 Tag vor Applikation): 12% | Anteil an Zellen: Pollen ([1]; 1 Tag vor Applikation): 2,4% | Anteil an Zellen: Puppen ([1]; 1 Tag vor Applikation): 29,1% | Anteil an Zellen: Eier ([1]; 6 Tage nach Applikation): 11,4% | Anteil an Zellen: Larven ([1]; 6 Tage nach Applikation): 6,3% | Anteil an Zellen: Leer ([1]; 6 Tage nach Applikation): 30,9% | Anteil an Zellen: Nektar ([1]; 6 Tage nach Applikation): 19,4% | Anteil an Zellen: Pollen ([1]; 6 Tage nach Applikation): 3,3% | Anteil an Zellen: Puppen ([1]; 6 Tage nach Applikation): 28,7% | Anteil an Zellen: Eier ([1]; 14 Tage nach Applikation): 19,4% | Anteil an Zellen: Larven ([1]; 14 Tage nach Applikation): 7,4% | Anteil an Zellen: Leer ([1]; 14 Tage nach Applikation): 51,8% | Anteil an Zellen: Nektar ([1]; 14 Tage nach Applikation): 9,2% | Anteil an Zellen: Pollen ([1]; 14 Tage nach Applikation): 1,5% | Anteil an Zellen: Puppen ([1]; 14 Tage nach Applikation): 10,7% | Anteil an Zellen: Eier ([1]; 27 Tage nach Applikation): 6,1% | Anteil an Zellen: Larven ([1]; 27 Tage nach Applikation): 2% | Anteil an Zellen: Leer ([1]; 27 Tage nach Applikation): 52% | Anteil an Zellen: Nektar ([1]; 27 Tage nach Applikation): 15,5% | Anteil an Zellen: Pollen ([1]; 27 Tage nach Applikation): 5,1% | Anteil an Zellen: Puppen ([1]; 27 Tage nach Applikation): 19,2% | Zahl der Larven [1, 8]: starke Abnahme | leere Wabenzellen [1, 8]: Verdoppelung | Aktivität der Nahrungssuche, Zahl der Bienen / min / 4 m^2 ([2]; 5 DAA): 28 Bienen / min / 4 m^2 | Aktivität der Nahrungssuche, Zahl der Bienen / min / 4 m^2 ([2]; 6 DAA b (14:30 Uhr)): 70 Bienen / min / 4 m^2 | Aktivität der Nahrungssuche, Zahl der Bienen / min / 4 m^2 ([2]; 7 DAA): 23 Bienen / min / 4 m^2 | Aktivität der Nahrungssuche, Zahl der Bienen / min / 4 m^2 ([2]; 8 DAA): 25 Bienen / min / 4 m^2 | Aktivität der Nahrungssuche, Zahl der Bienen / min / 4 m^2 ([2]; 9 DAA): 19 Bienen / min / 4 m^2 | Aktivität der Nahrungssuche, Zahl der Bienen / min / 4 m^2 ([2]; 11 DAA): 16 Bienen / min / 4 m^2 | Aktivität der Nahrungssuche, Zahl der Bienen / min / 4 m^2 ([2]; 13 DAA): 14 Bienen / min / 4 m^2 | Aktivität der Nahrungssuche, Zahl der Bienen / min / 4 m^2 ([2]; 15 DAA): 8 Bienen / min / 4 m^2 | Aktivität der Nahrungssuche, Zahl der Bienen / min / 4 m^2 ([2]; 16 DAA): 15 Bienen / min / 4 m^2 | Aktivität der Nahrungssuche, Zahl der Bienen / min / 4 m^2 ([2]; 17 DAA): 13 Bienen / min / 4 m^2 | Aktivität der Nahrungssuche, Zahl der Bienen / min / 4 m^2 ([2]; 18 DAA): 6 Bienen / min / 4 m^2 | Aktivität der Nahrungssuche ([2]; result in words, tent test, drench, I-5 20 mg a.s. / Pflanze, Thiamethoxam 10 mg a.s. / Pflanze (13 Tage nach Applikation)): fast vollständige Einstellung der Aktivität der Nahrungssuche | Aktivität der Nahrungssuche, Zahl der Bienen / min / m^2 ([3]; 0 DAA a (09:30 Uhr)): 26,8 Bienen / min / m^2 | Aktivität der Nahrungssuche, Zahl der Bienen / min / m^2 ([3]; 0 DAA c (14:15 Uhr)): 0,9 Bienen / min / m^2 | Aktivität der Nahrungssuche, Zahl der Bienen / min / m^2 ([3]; 0 DAA e (17:15 Uhr)): 0,4 Bienen / min / m^2 | Aktivität der Nahrungssuche, Zahl der Bienen / min / m^2 ([3]; 1 DAA b (15:30 Uhr)): 0 Bienen / min / m^2 | Aktivität der Nahrungssuche, Zahl der Bienen / min / m^2 ([3]; 2 DAA): 1,5 Bienen / min / m^2 | Aktivität der Nahrungssuche, Zahl der Bienen / min / m^2 ([3]; 3 DAA): 1,6 Bienen / min / m^2 | Aktivität der Nahrungssuche, Zahl der Bienen / min / m^2 ([3]; 6 DAA): 5,4 Bienen / min / m^2 | Aktivität der Nahrungssuche, Zahl der Bienen / min / m^2 ([3]; -1 DAA (before application)): 26,1 Bienen / min / m^2 | Aktivität der Nahrungssuche, Zahl der Bienen / min / m^2 ([3]; -2 DAA (before application)): 35,2 Bienen / min / m^2 | Aktivität der Nahrungssuche, Zahl der Bienen / min / m^2 ([3]; -3 DAA (before application)): 24,5 Bienen / min / m^2 | Aktivität der Nahrungssuche ([3]; result in words, tunnel test, spray, I-5 75 und 150 g a.s./ha, Thiamethoxam 50 g a.s./ha directly after application): fast vollständige Einstellung der Aktivität der Nahrungssuche | Zahl toter Arbeiterbienen ([4]; 6 DAA a (9:30 Uhr)): 143 | Zahl toter Arbeiterbienen ([4]; 6 DAA b (14:30 Uhr)): 35 | Zahl toter Arbeiterbienen ([4]; 7 DAA): 394 | Zahl toter Arbeiterbienen ([4]; 8 DAA): 143 | Zahl toter Arbeiterbienen ([4]; 9 DAA): 78 | Zahl toter Arbeiterbienen ([4]; 10 DAA): 295 | Zahl toter Arbeiterbienen ([4]; 11 DAA): 110 | Zahl toter Arbeiterbienen ([4]; 14 DAA): 40 | Zahl toter Arbeiterbienen ([4]; 16 DAA): 74 | Zahl toter Arbeiterbienen ([4]; 18 DAA): 29 | Mortalität von Arbeiterbienen vor dem Bienenstock ([4]; result in words, tent test, drench, I-5 20 mg a.s. / Pflanze, Thiamethoxam 10 mg a.s. / Pflanze): ausgeprägte Mortalität | Zahl toter Puppen ([5]; 0 DAA c (17:15 Uhr)): 0 | Zahl toter Puppen ([5]; 1 DAA): 0 | Zahl toter Puppen ([5]; 2 DAA): 0,1 | Zahl toter Puppen ([5]; 5 DAA): 0,5 | Zahl toter Puppen ([5]; 6 DAA): 0 | Zahl toter Puppen ([5]; 11 DAA): 0 | Zahl toter Puppen ([5]; 14 DAA): 0,4 | Zahl toter Puppen ([5]; 18 DAA): 0 | Zahl toter Puppen ([5]; 21 DAA): 0 | Zahl toter Puppen ([5]; 25 DAA): 0,2 | Zahl toter Puppen ([5]; -3 DAA (before application)): 0 | Zahl toter Arbeiterbienen ([6]; 0 DAA b (15:15 Uhr)): 420 | Zahl toter Arbeiterbienen ([6]; 0 DAA c (17:15 Uhr)): 45,3 | Zahl toter Arbeiterbienen ([6]; 1 DAA): 152,8 | Zahl toter Arbeiterbienen ([6]; 2 DAA): 229,4 | Zahl toter Arbeiterbienen ([6]; 3 DAA): 50,2 | Zahl toter Arbeiterbienen ([6]; 4 DAA): 891,6 | Zahl toter Arbeiterbienen ([6]; 5 DAA): 2,4 | Zahl toter Arbeiterbienen ([6]; 6 DAA): 9 | Zahl toter Arbeiterbienen ([6]; 11 DAA): 16,5 | Zahl toter Arbeiterbienen ([6]; -3 DAA (before application)): 1,6 | Mortalität von Arbeiterbienen vor dem Bienenstock ([6]; result in words, tunnel test, spray, I-5 75 und 150 g a.s./ha, Thiamethoxam 50 g a.s./ha): ausgeprägte Mortalität | Mortalität ([7]; leaves taken 1 Tag nach Behandlung, 24 h contact): 100% | Mortalität ([7]; leaves taken 1 Tag nach Behandlung, 48 h contact): 100% | Mortalität ([7]; leaves taken 1 Tag nach Behandlung, 72 h contact): 100% | Mortalität ([7]; leaves taken 3 Tage nach Behandlung, 24 h contact): 100% | Mortalität ([7]; leaves taken 3 Tage nach Behandlung, 48 h contact): 100% | Mortalität ([7]; leaves taken 3 Tage nach Behandlung, 72 h contact): 100% | Mortalität ([7]; leaves taken 6 Tage nach Behandlung, 24 h contact): 100% | Mortalität ([7]; leaves taken 6 Tage nach Behandlung, 48 h contact): 100% | Mortalität ([7]; leaves taken 6 Tage nach Behandlung, 72 h contact): 100% | Mortalität ([7]; leaves taken 13 Tage nach Behandlung, 24 h contact): 93,3% | Mortalität ([7]; leaves taken 13 Tage nach Behandlung, 48 h contact): 93% | Mortalität ([7]; leaves taken 13 Tage nach Behandlung, 72 h contact): 93,3%

Reference: EP2193713A1, “Method for fighting animal pests without damaging pollinating insects” (Bayer CropScience AG, priority 2008, dated 2010)
